Data on 2 compounds can be found in patent publication US20200155579A1, “Process for Hydrating Cyclophosphamide Freeze-Dried Composition and Product Thereof” (priority 2018, published 2020).

Data set [1] can be described thus: Stability in 40° C./75% RH stability test chamber (CPP content). Format: physicochemical. As to conditions: raw material.
Description: The CPP freeze-dried composition hydrated for 16 h was placed in 40° C./75% RH stability test chamber, was sampled after 1 month and 3 months, and determined for CPP contents, which were compared with CPP monohydrate obtained by prior art hydrating process.
The CPP freeze-dried composition hydrated for 16 h was placed in 40° C./75% RH stability test chamber, sampled after 1 month and 3 months for determining CPP contents.
The conditions of data set [2]: raw material.
Description: The moisture content, CPP content and redissolving time were determined for CPP freeze-dried composition hydrated with saturated sodium chloride solution in the freeze-drying box, respectively. In addition, the CPP freeze-dried compositions hydrated for 16 h and 24 h were placed in 45° C. oven and sampled for determining CPP contents after 1 week and 2 weeks, respectively.
Moisture content, CPP content and redissolving time were determined for CPP freeze-dried composition hydrated with saturated sodium chloride solution in the dryer, respectively. In addition, the CPP freeze-dried composition hydrated for 16 h was placed in 45° C. oven, sampled after 1 week and 2 weeks, respectively and determined for CPP contents. The CPP freeze-dried composition hydrated for 16 h was placed in 40° C./75% RH stability test chamber, was sampled after 1 month and 3 months, and determined for CPP contents, which were compared with CPP monohydrate obtained by prior art hydrating process.
The moisture content, CPP content and redissolving time were determined for CPP freeze-dried composition hydrated with saturated potassium sulfate solution in the dryer, respectively. In addition, the CPP freeze-dried composition hydrated for 16 h was placed in 45° C. oven and was sampled for determining CPP contents after 1 week and 2 weeks, respectively. […]
A short description of data set [3]: CPP content determination (HPLC). Format: physicochemical. As to conditions: raw material, initial.
Description: Preparation of sample stock solution (1 mg/ml anhydrous Cyclophosphamide): an appropriate amount of water is charged into sample bottle with shaking until complete dissolution of the sample, which is transferred to 500 ml volumetric flask. The sample bottle is washed with pure water to ensure complete transfer of all samples into the volumetric flask. The volumetric flask is metered into calibration and shaken for homogeneity.
Preparation of sample solution (0.5 mg/ml anhydrous Cyclophosphamide): 25 ml of sample stock solution and 5.0 ml of internal control solution (precisely weighed 185 mg of ethyl p-hydroxybenzoate control is dissolved in 1000 ml volumetric flask, to which is added 250 ml of ethanol. After shaking for dissolution, pure water is used to meter to calibration with shaking) are charged in 50 ml volumetric flask, which is metered with pure water to calibration with shaking and then used for HPLC analysis.
Data set [4] in a line: Skeletal density (gas pycnometer). In kind it is physicochemical. As to conditions: active ingredient; strength NA, hydration solution NA. The protocol: Skeletal Density, also known as true density, is determined at room temperature by Gas Pycnometer (Micromeritics Accupyc II 1340). Skeletal density is calculated by the following formula: […]
V1 is the true volume of the test sample, measured by Gas Pycnometer, mL.

Data set [5] in a line: Tapped density (USP <616> Method I). In kind it is physicochemical. As to conditions: active ingredient; strength NA, hydration solution NA.
Data set [6] is classed as physicochemical. As to conditions: air dispersion/dry model; hydration pressure 50 kPa. How it is done:
The hydrated CPP freeze-dried composition is stirred by weighting scoop gently until flowable powder comes into being. Then 1-2 g test sample is added on injection plate. Test method and parameters are as follows:
It will be understood by a person of ordinary skill in the art that a common approach to defining the distribution width is to cite three values on the x-axis, the D10, D50, and D90. As used herein, the term “D50” refers to the median particle diameter, wherein half of the particle population has a diameter below such value. As used herein, the term “D90,” refers to the particle diameter wherein 90% of the particle population has a diameter below such value. As used herein, the term “D10,” refers to the particle diameter wherein 10% of the particle population has a diameter below such value.

Data set [7] in a line: Reconstitution time (0.9% sodium chloride injection, cyclotron 250 rpm). In kind it is physicochemical. As to conditions: active ingredient. The protocol: Then the glass vial is placed on cyclotron (HY-5, Shanghai Suhao intelligent system Co. Ltd) which makes the glass vial oscillate at 250 rpm at room temperature to dissolve the active ingredient completely. The reconstitution time is recorded in Table 20.

Data set [8] is described as follows: Porosity (calculated from bulk and skeletal density). Format: physicochemical. As to conditions: active ingredient; strength NA, hydration solution NA. The protocol:
The porosity is calculated with the macroscopic volume (V0) & true volume (V1) or the bulk density (ρ0) & skeletal density (ρ1) by the following formula: […]

Data set [9] is described as follows: Bulk density (USP <616> Method I). In kind it is physicochemical. As to conditions: active ingredient; strength NA, hydration solution NA. How it is done: BD is calculated by the following formula: […]
W is the theoretical weight, g;
V0 is the macroscopic volume, mL.
V0 is calculated by the following formula: […]
D is the theoretical inside diameter, cm;

The conditions of data set [10]: general description; cited from earlier work.

In the case of `O=P1(N(CCCl)CCCl)NCCCO1` (stereo not drawn) [CPP monohydrate raw material, P-[N,N-bis(β-chloroethyl)]-1-oxa-3-aza-2-phosphocyclohexane-P-oxide], in data set [1], the “Stability-CPP content % 40° C./75% RH-1 month” value is listed as 98.9% and the “Stability-CPP content % 40° C./75% RH-3 month” value stood at 86.1%. Besides, in [2], the “Stability-CPP content % 45° C.-1 week” value came out at 106.1% and the “Stability-CPP content % 45° C.-2 week” value was determined as 101.8%. The compound further yielded a CPP content % in data set [3] of 99.6%.

Consider `O=P1(N(CCCl)CCCl)NCCCO1` (stereo not drawn) [P-[N,N-bis(β-chloroethyl)]-1-oxa-3-aza-2-phosphocyclohexane-P-oxide], for which, in [4], the “Skeletal Density” value was found to be 1.4286 g/mL. Also, in data set [5], the “Tapped Density” value was determined as 0.9369 g/mL. In [6], this compound returned a D10 of 5.6 μm, a D50 of 34.8 μm and a D90 of 262.0 μm. The Reconstitution time in [7] (strength 0.5 g) amounted to 8.7 min. Besides, in [7] (strength 1 g), the Reconstitution time came out at 11.2 min. This compound also displayed a Reconstitution time in data set [7] (strength 2 g) of 16.4 min. The Porosity in [8] is 56.28%. Further, the “Bulk Density” value in data set [9] worked out at 0.6246 g/mL. In addition, the Solubility entry in [10] is given as “soluble in water, normal saline or ethanol”.
